Reference: patent US20260335294A1, “TREATING CONGENITAL DISORDERS OF GLYCOSYLATION” (Mayo Foundation for Medical Education and Research, priority 2022, published 2026)
Marks after values point to notes of the source that are not given here.

Columns and labels:
pmm2 mutant zebrafish = assay: Metabolomic profiling of zebrafish treated with epalrestat; type: in vivo; settings: 5 dpf embryos, single dose 10 μM or 40 μM, 24 hours
Description: Animals were maintained according to standard protocols. The zebrafish strains were obtained from the Zebrafish International Resource Center (ZIRC, Eugene, OR). Pmm2sa10150 mutant zebrafish were established as described elsewhere (Klaver et al., JCI Insight, 6(24):e153474 (2021)).
10 embryos per sample were homogenized by sonication in extraction buffer (80% MeOH, IS). The metabolites were then precipitated at −80 °C overnight, after which the samples were centrifuged at 15,000 rpm, 20 minutes, 4 °C. Next, the supernatant was transferred to a fresh Eppendorf tube. The samples were centrifuged again at 15,000 rpm, 20 minutes, 4 °C to remove any leftover impurities and transferred to a fresh MS vial. Finally, the samples were analyzed by LC/MS.
Fibroblasts were plated in 6-well plates for LC/MS and T75 flasks for GC/MS analysis as described above. After 24 hours, medium was removed and cells washed with PBS. Then, DMEM containing 5.5 mM glucose, 2 mM glutamine, and 10% dialyzed FBS was added. Epalrestat was freshly prepared and fibroblasts were supplemented with 10 μM epalrestat daily. After 48 hours media was changed, and 48 hours after that, metabolites were extracted and measured by both LC/MS and GC/MS. Zebrafish embryos were genotyped at 2 days post fertilization (dpf), and were treated by adding the epalrestat (solubilized in DMSO) directly into the embryo media at 5 dpf. […]

PMM2-CDG patients = assay: Urine polyols (sorbitol, mannitol) in patients on epalrestat; type: in vivo, human; settings: for Urine Sorbitol: normal <5; for Urine Mannitol: normal < 20
Excerpt: The primary objective of the study was to assess the efficacy and safety of epalrestat treatment in 3 PMM2-CDG pediatric subjects prior to a planned Phase III clinical trial (Oral epalrestat therapy in Pediatric Subjects with PMM2-CDG, NCT04925960). The secondary objective was to assess the ability of epalrestat to improve clinically relevant aspects of PMM2-CDG such as increased urine polyols (sorbitol, mannitol), abnormal glycosylation (carbohydrate deficient transferrin), abnormal coagulation (ATIII=antithrombin III), impaired liver function (ALT=Alanine Transaminase, AST=Aspartate Transaminase), neurologic function (Brief Ataxia Rating Scale=BARS), severity of phenotype (Nijmegen Pediatric CDG Rating Scale=NPCRS). The ability of epalrestat to inhibit polyol production was monitored by evaluating urine polyol levels (sorbitol, mannitol), which are elevated in PMM2-CDG. Next, carbohydrate deficient transferrin, which is abnormal in PMM2-CDG, was evaluated in order to assess improvement of glycosylation following epalrestat treatment. CDT mono-oligo/dioligo ratio and a-oligo/dioligo ratio are used to evaluate glycosylation abnormalities. Transferrin normally occurs with two glycan chains (di-oligo). In the case of glycosylation abnormalities, glycan chains are missing (A-oligo transferrin has no glycan chains, mono-oligo has one glycan chain, di-oligo has two glycan chains). The higher ratio of a-oligo/di-oligo and mono-oligo/di-oligo indicate glycosylation abnormalities are present. Therefore, improvement in a-oligo/di-oligo and mono-oligo/di-oligo ratios can be used to monitor improvement or worsening of glycosylation status. Changes in the liver enzymes AST, ALT, which are frequently elevated in PMM2-CDG, were monitored both as part of a safety study and as part of monitoring clinical improvement in coagulation. Neurologic improvement was assessed by modified BARS scores in 2 patients (3rd patient was not eligible for the test due to age at the start of the trial). NPCRS was assessed at every visit to assess changes in the severity of the patients' phenotype. Additionally, the frequency of adverse events, changes in vital signs, complete blood count, and changes in BMI were monitored.
Two patients were started on epalrestat on single patient investigational new drug (IND) (P5 IRB: 19-010017; IND #145262; P6 Protocol PMM2-CDG-001/A). Epalrestat was initiated on the parents' own initiative in the third patient (P7). Two patients were in their second year of epalrestat treatment, while the third, was in the 3rd year of treatment. Physical, neurological, and biochemical examinations were performed in 3 PMM2-CDG patients at baseline, and at every three months after the start of the epalrestat treatment. Patients underwent NPCRS phenotype severity assessment and biological sampling at every visit. Epalrestat (Ono Pharmaceuticals, Osaka, Japan) was taken orally 3 times per day (TID) before meals in a divided dose, with dosage escalation throughout the treatment. The pharmacological profile of epalrestat was as described elsewhere (Ligezka et al, Ann. Neurol., 90(6):887-900 (2021)). The starting dosage in P5 and P6 was 0.8 mg/kg/day, while P7 was started on 0.5 mg/kg/day due to their young age. P7 dosage was increased to 0.8 mg/day after a month, once safety was established. Blood and urine samples were collected routinely. Urine polyols, carbohydrate deficient transferrin (CDT), anti-thrombin III (ATIII), liver enzymes (ALT, AST), and complete blood count (CBC) were performed. Modified Brief Ataxia Rating Scale was used to assess ataxia in the 2 patients (P5, P6; P7 was not eligible for the test due to age). The modified BARS scale included Archimedes spiral test, but not the abnormalities of the ocular pursuit system and the scale range was 0-54. Goal attainment scale (GAS) was administered as described per study protocol (ClinicalTrials.gov Identifier: NCT04199000). […]

[1] = P6, Baseline column: first available results 3 months after starting treatment, 0.8 mg/kg day

CC(/C=C1\SC(=S)N(CC(=O)O)C1=O)=C\c1ccccc1 [epalrestat]
GDP-mannose level (pmm2 mutant zebrafish): increased | polyol levels (pmm2 mutant zebrafish): reduced | Urine Sorbitol (PMM2-CDG patients; P5, 12 months, 1.5 mg/kg day, baseline 19.9): 10.7 mmol/mol Cr | Urine Mannitol (PMM2-CDG patients; P5, 12 months, 1.5 mg/kg day, baseline 648.6): 32.6 mmol/mol Cr | Urine Sorbitol (PMM2-CDG patients; P5, 24 months, 2 mg/kg day, baseline 19.9): 7.5 mmol/mol Cr | Urine Mannitol (PMM2-CDG patients; P5, 24 months, 2 mg/kg day, baseline 648.6): 45.3 mmol/mol Cr | Urine Sorbitol (PMM2-CDG patients; P5, 28 months, 3 mg/kg day, baseline 19.9): 7.86 mmol/mol Cr | Urine Mannitol (PMM2-CDG patients; P5, 28 months, 3 mg/kg day, baseline 648.6): 93.19 mmol/mol Cr | urine mannitol during treatment (PMM2-CDG patients; P5, underwent a fructose loading test): A fluctuation in mannitol | urine polyol levels (PMM2-CDG patients; P5-P7, words): decreased | urine polyol levels during treatment (PMM2-CDG patients; P5-P7, words): remained mostly stable | Urine Sorbitol (PMM2-CDG patients; P6, 12 months, 1.5 mg/kg day): 12.81 mmol/mol Cr | Urine Mannitol (PMM2-CDG patients; P6, 12 months, 1.5 mg/kg day): 14.77 mmol/mol Cr | Urine Sorbitol (PMM2-CDG patients; P6, 18 months, 3 mg/kg day): 9 mmol/mol Cr | Urine Mannitol (PMM2-CDG patients; P6, 18 months, 3 mg/kg day): 47 mmol/mol Cr | Urine Sorbitol (PMM2-CDG patients; [1]): 50.80# mmol/mol Cr | Urine Mannitol (PMM2-CDG patients; [1]): 23.90# mmol/mol Cr | Urine Sorbitol (PMM2-CDG patients; P7, 12 months, 1.5 mg/kg day, baseline 9.85): 0.03 mmol/mol Cr | Urine Mannitol (PMM2-CDG patients; P7, 12 months, 1.5 mg/kg day, baseline 10.37): 1.89 mmol/mol Cr
